Data set [1] is described as follows: Singlet oxygen (1O2) production rate. Type of data set: physicochemical. From the text:
The production of singlet oxygen (^1O2), cellular phototoxicity and light-independent cytotoxicity (“dark toxicity”) of a number of phyllochlorin analogues were compared against chlorin e4 disodium and Talaporfin sodium (mono-L-aspartyl chlorin e6), the active ingredient of Laserphyrin™.

The test system of data set [2] is SKOV3 ovarian cancer cells. Briefly: Inherent cytotoxicity (dark toxicity) in SKOV3 cells (AlamarBlue viability). Type of data set: cell-based, Human. The note with it: human, 24 h. (Alamar Blue is a resazurin reagent that responds to reducing activity.)
Data set [3] is described as follows: In vivo toxicity in wild type mice. The conditions noted are these: intravenous or intraperitoneal injection, 0.5 to 5 mg/kg. As to the method:
The potential application of compound 6 as a representative phyllochlorin species was explored in vivo. Wild type mice (Balb/C and C57BL/6) received compound 6 by intravenous or intraperitoneal injection, with doses ranging from 0.5 to 5 mg/kg.

Data set [4] relates to HEK293. As to the kind of experiment: Cytotoxicity, pan-cancer panel. Type of data set: cell-based. The note with it: HEK293, embryonic kidney. The procedure:
(§1) To test for inherent cytotoxicity (i.e. “dark toxicity”) of the phyllochlorin analogue the culture media was replaced after 24 hours with fresh media containing 10% (v/v) AlamarBlue Cell Viability Reagent (ThermoFisher) and cells incubated at 37° C. for 6 hours. Untreated cells were used as a control. Fluorescence (Ex 555 nm/Em 596 nm) was measured using a Cytation 3 Multimode Plate Reader (Biotek), and cytotoxicity assessed according to the % viable cells remaining. All measurements were made in quadruplicate.
(§2) The activity of phyllochlorin analogues against multiple cancer cell types was assessed as above, using compounds 3 and 6 as examples.

In data set [5] the test system is B16F10. As to the kind of experiment: Cytotoxicity, pan-cancer panel. The note with it: B16F10, melanoma. Type of data set: cell-based. The procedure:
as §1, §2

For data set [6], the system named is HH. Briefly: Cytotoxicity, pan-cancer panel. It is filed as cell-based. The note with it: T cell lymphoma. As to the method: as §1, §2
Data set [7] has as its system LP9. As to the kind of experiment: Cytotoxicity, pan-cancer panel. Type of data set: cell-based. The note with it: LP9, immortalised mesothelial cells. As to the method:
as §1, §2

Data set [8] concerns MDA-MB-468. Briefly: Cytotoxicity, pan-cancer panel. It is filed as cell-based. The note with it: MDA-MB-468, breast adenocarcinoma (triple negative). The procedure:
as §1, §2

Data set [9] relates to DLD-1. As to the kind of experiment: Cytotoxicity, pan-cancer panel. Type of data set: cell-based. The note with it: DLD-1, colorectal adenocarcinoma. As to the method:
as §1, §2

Data set [10] concerns A549. Briefly: Cytotoxicity, pan-cancer panel. Type of data set: cell-based. The conditions noted are these: A549, lung adenocarcinoma. The procedure:
as §1, §2

Data set [11] relates to ID8 murine ovarian cancer cells. Briefly: Tumour localisation and retention, model 2 (intraperitoneal ID8 metastatic disease). Type of data set: in vivo, C57BL/6 wild type mice. As to the method: Model 2 used C57BL/6 wild type mice implanted intraperitoneally with 1×10^6 ID8 murine ovarian cancer cells. Following a 4 week incubation (at which point metastatic peritoneal disease with macroscopically visible tumour deposits was established), mice received compound 6 by either oral gavage (ORAL: 2.5 mg/kg), intravenous injection (IV: 1.0 mg/kg), or intraperitoneal injection (IP: 1.0 mg/kg). Quantitative imaging was performed as above; however, due to the disseminated nature of ovarian cancer, imaging was performed at autopsy, using blue light (400 nm) illumination to visualise red fluorescence associated with compound 6 in tumour deposits.

The subject of data set [12] is HEK293. Briefly: Phototoxicity, pan-cancer panel. The conditions noted are these: Homo sapiens, light or radiation study; HEK293, embryonic kidney. Type of data set: cell-based. As to the method: (§3) To test for phototoxicity, cells incubated with phyllochlorin analogues (0-10 μM in DMSO) had culture media replaced after 24 hours (as above) and were then exposed to a 652 nm laser (Invion) with laser density at 50 mW/cm^2 for 5 mins (total 15 J/cm^2). Following activation, cells were cultured for a further 24 hours. Media was then replaced with fresh media containing AlamarBlue, and % viable cells remaining assessed as above. Controls included cells treated with phyllochlorin analogues but not activated by laser light; cells without phyllochlorin analogue treatment but with laser light; and untreated controls. All measurements were made in quadruplicate.
as §2

The subject of data set [13] is B16F10. Briefly: Phototoxicity, pan-cancer panel. It is filed as cell-based. The note with it: Mus musculus, B16-F10, light or radiation study; B16F10, melanoma. The procedure: as §3, §2
Data set [14] relates to HH. As to the kind of experiment: Phototoxicity, pan-cancer panel. It is filed as cell-based. The conditions noted are these: Homo sapiens, light or radiation study, T cell lymphoma. The procedure: as §3, §2
The test system of data set [15] is LP9. As to the kind of experiment: Phototoxicity, pan-cancer panel. The note with it: light or radiation study; LP9, immortalised mesothelial cells. Type of data set: cell-based. The procedure:
as §3, §2

For data set [16], the system named is MDA-MB-468. Briefly: Phototoxicity, pan-cancer panel. Type of data set: cell-based. The conditions noted are these: Homo sapiens, light or radiation study; MDA-MB-468, breast adenocarcinoma (triple negative). The procedure:
as §3, §2

Data set [17] has as its system DLD-1. Briefly: Phototoxicity, pan-cancer panel. The conditions noted are these: Homo sapiens, light or radiation study; DLD-1, colorectal adenocarcinoma. Type of data set: cell-based. The procedure:
as §3, §2

Data set [18] concerns A549. As to the kind of experiment: Phototoxicity, pan-cancer panel. It is filed as cell-based. The conditions noted are these: Homo sapiens, light or radiation study; A549, lung adenocarcinoma. The procedure: as §3, §2

Each structure is given as a SMILES string.

A word on the IC90: it is the concentration at which the effect reaches the 90% level. A low value points to greater potency. In the case of `C=Cc1c(C)c2cc3nc(c(C)c4cc(C)c(cc5nc(cc1[nH]2)C(C)=C5CC)[nH]4)[C@@H](CCC(=O)N(C)CCCS[C@@H]1O[C@H](CO)[C@@H](O)[C@H](O)[C@H]1O)[C@@H]3C` [Compound 6, 3-((7S,8S)-18-ethyl-2,5,8,12,17-pentamethyl-13-vinyl-7H,8H-porphyrin-7-yl)-N-methyl-N-(3-(((2S,3R,4S,5S,6R)-3,4,5-trihydroxy-6-(hydroxymethyl)tetrahydro-2H-pyran-2-yl)thio)propyl)propanamide], the “Singlet Oxygen Production (slope) 1O2” value in [1] is given as 1700.0. In addition, in data set [2], the “Cellular Toxicity: Dark toxicity IC10” value was determined as 9.49 µM. The “Cytotoxicity IC10” value in data set [2] stood at 9.49 µM; in the data set on HEK293 [4], 8.16 µM; with B16F10 [5] it was 22.85 µM; in the data set with HH [6], 10.25 µM; in the data set on LP9 [7], 19.63 µM; in the data set on MDA-MB-468 [8] it was 13.25 µM. Besides, the “Cytotoxicity IC10” value came to 9.20 µM in the data set with DLD-1 [9] and 29.52 µM with A549 [10]. Further, the Adverse toxic events entry in data set [3] is on record as “no adverse toxic events observed at any dose”. Also, the “Localisation into metastatic nodules” value in data set [11] (IP 1.0 mg/kg) was “rapid and highly selective localisation”. In addition, the “Retention in tumour following injection” value in data set [11] (IV 1.0 mg/kg) is on record as “at least 24 hours”. The “Time of peak tumour distribution” value in data set [11] (IV 1.0 mg/kg) is 4 h. The IC90 is 200 nM with HEK293 [12]; 640 nM with B16F10 [13]; 30 nM in the data set with HH [14]; 30 nM with LP9 [15]; 70 nM with MDA-MB-468 [16]; 330 nM in the data set with DLD-1 [17]. The IC90 with A549 [18] was found to be 140 nM.

These data come from US20230365577A1, “Photodynamic Therapy and Diagnosis” (RMW CHO Group Limited, priority 2020, published 2023).
